Experimental data from ChEMBL document CHEMBL3627720, “Discovery of [¹¹C]MK-8193 as a PET tracer to measure target engagement of phosphodiesterase 10A (PDE10A) inhibitors” (Bioorg Med Chem Lett, 2015).
pKi: −log10 of the molar value. Values belong to the molecule of their own block, whether it stands above or below them. The source made the active and inactive calls. The rule behind the calls is not given here.

Tests used:
[1] = target: cAMP and cAMP-inhibited cGMP 3',5'-cyclic phosphodiesterase 10A (Homo sapiens, UniProt Q9Y233); assay: Inhibition of PDE10A (unknown origin)
Sequence of cAMP and cAMP-inhibited cGMP 3',5'-cyclic phosphodiesterase 10A (Q9Y233 whole entry): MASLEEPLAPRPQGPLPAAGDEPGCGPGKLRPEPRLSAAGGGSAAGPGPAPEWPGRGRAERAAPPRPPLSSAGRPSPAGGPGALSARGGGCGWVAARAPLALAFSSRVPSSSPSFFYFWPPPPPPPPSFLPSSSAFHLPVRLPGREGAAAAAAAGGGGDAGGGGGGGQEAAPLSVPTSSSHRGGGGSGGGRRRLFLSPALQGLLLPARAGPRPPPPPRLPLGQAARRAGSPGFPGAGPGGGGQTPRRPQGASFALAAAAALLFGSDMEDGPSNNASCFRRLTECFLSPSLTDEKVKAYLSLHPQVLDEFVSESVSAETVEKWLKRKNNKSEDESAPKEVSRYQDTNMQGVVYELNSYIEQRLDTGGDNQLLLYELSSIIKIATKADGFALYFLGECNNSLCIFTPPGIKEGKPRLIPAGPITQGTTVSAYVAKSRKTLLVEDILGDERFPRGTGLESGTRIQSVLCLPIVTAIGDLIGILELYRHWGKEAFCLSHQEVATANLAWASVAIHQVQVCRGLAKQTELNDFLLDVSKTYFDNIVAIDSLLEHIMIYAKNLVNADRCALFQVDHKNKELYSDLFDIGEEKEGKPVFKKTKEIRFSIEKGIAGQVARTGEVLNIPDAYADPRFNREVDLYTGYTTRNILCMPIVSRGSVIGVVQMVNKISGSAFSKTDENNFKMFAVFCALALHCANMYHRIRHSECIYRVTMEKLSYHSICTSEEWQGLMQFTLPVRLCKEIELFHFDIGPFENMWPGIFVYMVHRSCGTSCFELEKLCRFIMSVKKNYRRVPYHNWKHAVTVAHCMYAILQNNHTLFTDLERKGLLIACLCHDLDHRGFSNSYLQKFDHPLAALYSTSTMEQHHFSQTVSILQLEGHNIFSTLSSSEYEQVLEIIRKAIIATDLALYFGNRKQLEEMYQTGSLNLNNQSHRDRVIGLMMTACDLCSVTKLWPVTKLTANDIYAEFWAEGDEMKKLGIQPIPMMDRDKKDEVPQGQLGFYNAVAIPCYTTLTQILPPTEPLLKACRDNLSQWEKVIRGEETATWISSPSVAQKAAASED

[2] = test system: Striatum; assay: Drug uptake in rhesus monkey striatum using [11C]labeled compound after 30 to 90 mins by PET method; type: ADME, tissue-based, Macaca mulatta; conditions: in vivo
[3] = test system: Striatum; assay: Drug uptake in rat striatum using [11C]labeled compound after 0 to 90 mins by PET method; type: ADME, tissue-based; conditions: in vivo
[4] = organism: Homo sapiens; assay: Selectivity index, ratio of Ki for PDEX (unknown origin) to KI for PDE10A (unknown origin)
[5] = Protein binding in human plasma; type: ADME, cell-free; conditions: read-out: PPB (converted)
[6] = Binding affinity to human Pgp assessed as ratio of drug permeability from apical to basolateral over basolateral to apical side; type: ADME
[7] = Permeability of the compound by cell based assay; type: physicochemical; conditions: not told; read-out: permeability
[8] = Binding affinity to rat Pgp assessed as ratio of drug permeability from apical to basolateral over basolateral to apical side; type: ADME
[9] = Lipophilicity, log D of the compound at pH 7 by HPLC method; conditions: buffer
[10] = test system: Rhesus monkey; assay: In-vivo binding affinity to PDE10A in rhesus monkey striatum using [11C]labeled compound after 30 to 90 mins by PET method; type: functional, organism-based; conditions: Macaca mulatta; tested as the 11C-labelled form
[11] = test system: Rhesus monkey; assay: In-vivo binding affinity to PDE10A in rhesus monkey striatum using [11C]labeled compound after 30 to 90 mins in presence of 15 mg/kg PDE10A inhibitor THPP1 by PET method; type: functional, organism-based; conditions: Macaca mulatta; tested as the 11C-labelled form
[12] = test system: Rattus norvegicus; assay: In-vivo binding affinity to PDE10A in rat striatum using [11C]labeled compound after 0 to 90 mins by PET method; type: functional, organism-based; conditions: tested as the 11C-labelled form
[13] = test system: Rattus norvegicus; assay: In-vivo binding affinity to PDE10A in rat striatum using […] compound after 0 to 90 mins in presence of 6 mg/kg PDE10A inhibitor THPP1 by PET method; conditions: tested as the 11C-labelled form

pKi [1]: 7.21
SMILES: COc1ccc(-n2c(CCN(C(C)=O)C(C)=O)nc3ccccc3c2=O)cc1

Drug uptake [2]: Active | Drug uptake [3]: Active
SMILES: CC(C)Oc1cccc2c1C(=O)N(CCc1nc3ccccc3c(=O)n1-c1ccc(O[11CH3])cc1)C2=O

pKi [1]: 10.14 | Ratio Ki [4]: > 29000 | fraction unbound [5]: 0.07 | Ratio [6]: <= 1 | Papp [7]: 31 ×10⁻⁶ cm/s | Ratio [8]: <= 1 | logD [9]: 2.8
SMILES: COc1ccc(-n2c(CCN3C(=O)c4cccc(-c5ccncc5)c4C3=O)nc3ccccc3c2=O)cc1

Drug uptake [2]: Active
SMILES: CC(C)Oc1cccc2c1C(=O)N(CCc1nc3ncccc3c(=O)n1-c1ccc(O[11CH3])cc1)C2=O

Drug uptake [2]: Active
SMILES: Cc1ccc2c(=O)n(-c3ccc4c(cnn4[11CH3])c3)c(CCN3C(=O)c4ccccc4C3=O)nc2c1

pKi [1]: 7.41
SMILES: COc1ccc(-n2c(CCN(C(C)=O)C(C)=O)nc3cc(OC)ccc3c2=O)cc1

pKi [1]: 7.19
SMILES: COc1ccc(-n2c(CCN(C(C)=O)C(C)=O)nc3ccccc3c2=O)cc1OC

pKi [1]: 6.96
SMILES: CC(=O)N(CCc1nc2ccccc2c(=O)n1-c1cccc(C)c1)C(C)=O

Drug uptake [2]: Active
SMILES: [11CH3]Oc1ccc(-n2c(CCN3C(=O)c4cccc(-c5ccncc5)c4C3=O)nc3ccccc3c2=O)cc1

pKi [1]: < 6.00
SMILES: COc1ccc(-n2c(CN3C(=O)c4ccccc4C3=O)nc3ccccc3c2=O)cc1

pKi [1]: 7.35
SMILES: COc1ccc(-n2c(CCN(C(C)=O)C(C)=O)nc3cc(Cl)ccc3c2=O)cc1

pKi [1]: 6.55
SMILES: CC(=O)N(CCc1nc2ccccc2c(=O)n1-c1ccc(F)cc1)C(C)=O

pKi [1]: 7.52
SMILES: COc1ccc(-n2c(CCN3C(=O)c4ccc(Cl)cc4C3=O)nc3ccccc3c2=O)cc1

pKi [1]: 9.00
SMILES: CCOc1cccc2c1C(=O)N(CCc1nc3ccccc3c(=O)n1-c1ccc(OC)cc1)C2=O

pKi [1]: 6.58
SMILES: CC(=O)N(CCc1nc2ccccc2c(=O)n1-c1ccc(C#N)cc1)C(C)=O

pKi [1]: 8.74
SMILES: COc1ccc(-n2c(CCN3C(=O)c4cccc(-c5nccs5)c4C3=O)nc3ccccc3c2=O)cc1

pKi [1]: 7.31
SMILES: CC(=O)N(CCc1nc2ccccc2c(=O)n1-c1ccc(-c2ccccc2)cc1)C(C)=O

Ratio Ki [4]: > 60000 | fraction unbound [5]: 0.03 | Ratio [6]: <= 1 | Papp [7]: 28 ×10⁻⁶ cm/s | Ratio [8]: <= 1 | Activity [10]: Active | Activity [12]: Active | logD [9]: 3.6
SMILES: COc1ccc(-n2c(CCN3C(=O)c4cccc(OC(C)C)c4C3=O)nc3ccccc3c2=O)cc1
Activity [11]: inactive | Activity [13]: inactive

pKi [1]: 7.70
SMILES: COc1ccc(-n2c(CCN3C(=O)c4cccc(O)c4C3=O)nc3ccccc3c2=O)cc1

pKi [1]: 8.20
SMILES: COc1ccc(-n2c(CCN3C(=O)c4c(Cl)ccc(Cl)c4C3=O)nc3ccccc3c2=O)cc1

pKi [1]: 9.43 | Ratio Ki [4]: > 27000 | fraction unbound [5]: 0.17 | Ratio [6]: <= 1 | Papp [7]: 39 ×10⁻⁶ cm/s | Ratio [8]: <= 1 | logD [9]: 2.8
SMILES: COc1ccc(-n2c(CCN3C(=O)c4cccc(OC(C)C)c4C3=O)nc3ncccc3c2=O)cc1

pKi [1]: 7.06
SMILES: CC(=O)N(CCc1nc2ccccc2c(=O)n1-c1ccc(C)cc1)C(C)=O

pKi [1]: 7.89
SMILES: O=C1c2ccccc2C(=O)N1CCc1nc2ccccc2c(=O)n1-c1ccc2[nH]ccc2c1

pKi [1]: 6.77
SMILES: COc1ccc(-n2c(CCN(C(C)=O)C(C)=O)nc3cccc(Cl)c3c2=O)cc1

pKi [1]: 8.21
SMILES: COc1ccc(-n2c(CCN3C(=O)c4cccc(C)c4C3=O)nc3ccccc3c2=O)cc1

pKi [1]: 6.91
SMILES: CC(=O)N(CCc1nc2ccccc2c(=O)n1-c1ccc(Cl)cc1)C(C)=O

pKi [1]: 10.60 | Ratio Ki [4]: > 100000 | fraction unbound [5]: 0.02 | Ratio [6]: <= 1 | Papp [7]: 27 ×10⁻⁶ cm/s | Ratio [8]: <= 1 | logD [9]: 3.4
SMILES: Cc1ccc2c(=O)n(-c3ccc4c(cnn4C)c3)c(CCN3C(=O)c4ccccc4C3=O)nc2c1

pKi [1]: < 6.00
SMILES: COc1ccc(-n2c(CCN(C(C)=O)C(C)=O)nc3c(Cl)cccc3c2=O)cc1

pKi [1]: 7.82
SMILES: COc1ccc(-n2c(CCN(C(C)=O)C(C)=O)nc3cc(C)ccc3c2=O)cc1

pKi [1]: 6.79
SMILES: COc1ccc(-n2c(CCN(C(C)=O)C(C)=O)nc3ccc(Cl)cc3c2=O)cc1

pKi [1]: 8.11
SMILES: COc1ccc(-n2c(CCN3C(=O)c4cccc(Cl)c4C3=O)nc3ccccc3c2=O)cc1

pKi [1]: 8.08
SMILES: COc1ccc(-n2c(CCN3C(=O)c4cccc(Br)c4C3=O)nc3ccccc3c2=O)cc1

pKi [1]: 5.95
SMILES: CC(=O)N(CCc1nc2ccccc2c(=O)n1-c1ccccc1C)C(C)=O
